These results are taken from US12492188B2, “1H-benzo[D]imidazole derivatives as TLR9 inhibitors for the treatment of fibrosis” (BRISTOL-MYERS SQUIBB COMPANY, priority 2020, dated 2025).

Assay type in all cases: cell-based
The target in test [1] is T1, human TLR9 (Homo sapiens, UniProt Q9NR96).
T1 construct: host or cells: HEK-Blue cells (HEK293-derived reporter line)
T1 sequence (Q9NR96 26-1032): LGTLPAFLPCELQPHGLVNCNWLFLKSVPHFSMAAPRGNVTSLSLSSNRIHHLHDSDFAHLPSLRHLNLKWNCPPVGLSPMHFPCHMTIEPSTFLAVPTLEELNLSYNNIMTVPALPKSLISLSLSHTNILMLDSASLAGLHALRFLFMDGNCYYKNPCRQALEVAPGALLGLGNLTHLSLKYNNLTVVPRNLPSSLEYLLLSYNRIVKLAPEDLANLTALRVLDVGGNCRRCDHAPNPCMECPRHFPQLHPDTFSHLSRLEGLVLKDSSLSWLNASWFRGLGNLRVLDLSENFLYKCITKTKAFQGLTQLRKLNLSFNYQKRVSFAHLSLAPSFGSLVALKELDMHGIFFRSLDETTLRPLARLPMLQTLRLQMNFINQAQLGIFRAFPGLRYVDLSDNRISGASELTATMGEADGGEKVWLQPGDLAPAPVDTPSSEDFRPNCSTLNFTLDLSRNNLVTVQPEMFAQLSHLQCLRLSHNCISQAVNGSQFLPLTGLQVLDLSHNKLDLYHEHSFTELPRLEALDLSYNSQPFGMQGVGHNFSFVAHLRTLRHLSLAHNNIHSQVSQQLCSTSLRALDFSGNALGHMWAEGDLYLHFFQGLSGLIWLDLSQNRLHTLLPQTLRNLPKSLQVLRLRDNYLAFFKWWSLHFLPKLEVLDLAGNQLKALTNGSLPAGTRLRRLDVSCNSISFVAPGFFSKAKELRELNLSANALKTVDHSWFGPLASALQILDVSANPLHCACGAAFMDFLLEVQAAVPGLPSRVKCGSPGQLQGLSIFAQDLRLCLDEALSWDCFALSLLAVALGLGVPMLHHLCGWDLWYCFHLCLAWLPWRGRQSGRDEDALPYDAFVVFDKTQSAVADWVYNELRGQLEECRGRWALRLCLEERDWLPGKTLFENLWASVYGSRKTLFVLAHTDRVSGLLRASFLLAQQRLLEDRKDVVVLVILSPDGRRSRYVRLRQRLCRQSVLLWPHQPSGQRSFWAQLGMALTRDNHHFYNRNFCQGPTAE
Description: TLR9 inhibition reporter assay (HEK-Blue cells, secreted embryonic alkaline phosphatase reporter). The procedure, abridged: (§1)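 Cells seeded at 15000 (TLR7), 20,000 (TLR8) or 25,000 (TLR9) per well; compound 0.05 nM–50 μM, 30 min RT pre-incubation. Agonists: gardiquimod 7.5 μM, R848 15.9 μM, ODN2006 5 nM respectively. 22 h, 37 °C; SEAP via HEK-Blue Detection; % inhibition vs agonist+DMSO and known-inhibitor wells.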
(In general: A reporter such as luciferase makes a cellular process visible.)

For test [2], the target named is T2, human TLR8 (Homo sapiens, UniProt Q9NR97).
T2 construct: host or cells: HEK-Blue cells (HEK293-derived reporter line)
T2 sequence (Q9NR97 27-1041): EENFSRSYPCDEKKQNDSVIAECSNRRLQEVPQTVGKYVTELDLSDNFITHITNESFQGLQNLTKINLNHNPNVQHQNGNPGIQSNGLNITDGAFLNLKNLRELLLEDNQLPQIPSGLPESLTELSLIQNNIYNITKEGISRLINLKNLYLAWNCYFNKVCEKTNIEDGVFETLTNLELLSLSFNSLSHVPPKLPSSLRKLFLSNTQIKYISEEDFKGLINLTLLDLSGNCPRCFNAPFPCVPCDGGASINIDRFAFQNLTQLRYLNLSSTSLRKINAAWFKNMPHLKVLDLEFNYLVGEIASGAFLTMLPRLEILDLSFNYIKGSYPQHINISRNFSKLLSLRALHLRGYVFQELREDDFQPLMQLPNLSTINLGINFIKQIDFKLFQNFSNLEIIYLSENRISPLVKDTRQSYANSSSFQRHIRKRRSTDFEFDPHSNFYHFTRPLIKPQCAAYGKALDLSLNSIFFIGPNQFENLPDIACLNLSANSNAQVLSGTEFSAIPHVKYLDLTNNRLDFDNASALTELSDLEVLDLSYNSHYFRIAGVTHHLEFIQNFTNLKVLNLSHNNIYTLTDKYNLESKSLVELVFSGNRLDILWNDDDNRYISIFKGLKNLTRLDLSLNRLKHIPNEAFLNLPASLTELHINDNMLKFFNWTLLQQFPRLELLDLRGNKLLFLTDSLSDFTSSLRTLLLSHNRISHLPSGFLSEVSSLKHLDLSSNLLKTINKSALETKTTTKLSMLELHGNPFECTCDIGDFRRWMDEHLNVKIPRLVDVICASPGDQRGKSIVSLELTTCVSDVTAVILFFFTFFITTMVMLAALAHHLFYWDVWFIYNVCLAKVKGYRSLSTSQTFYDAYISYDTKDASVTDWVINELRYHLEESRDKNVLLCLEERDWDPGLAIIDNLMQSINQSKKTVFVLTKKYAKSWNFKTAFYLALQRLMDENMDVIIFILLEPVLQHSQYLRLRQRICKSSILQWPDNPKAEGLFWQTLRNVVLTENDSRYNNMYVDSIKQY
Description: TLR8 inhibition reporter assay (HEK-Blue cells, secreted embryonic alkaline phosphatase reporter). The settings on record: HEK-Blue cells overexpressing human TLR8, stimulated with R848 15.9 μM; read-out: TLR 8 IC50. The procedure, abridged: as §1

Test [3] concerns the target T3, human TLR7 (Homo sapiens, UniProt Q9NYK1).
T3 construct: host or cells: HEK-Blue cells (HEK293-derived reporter line)
T3 sequence (Q9NYK1 27-1049): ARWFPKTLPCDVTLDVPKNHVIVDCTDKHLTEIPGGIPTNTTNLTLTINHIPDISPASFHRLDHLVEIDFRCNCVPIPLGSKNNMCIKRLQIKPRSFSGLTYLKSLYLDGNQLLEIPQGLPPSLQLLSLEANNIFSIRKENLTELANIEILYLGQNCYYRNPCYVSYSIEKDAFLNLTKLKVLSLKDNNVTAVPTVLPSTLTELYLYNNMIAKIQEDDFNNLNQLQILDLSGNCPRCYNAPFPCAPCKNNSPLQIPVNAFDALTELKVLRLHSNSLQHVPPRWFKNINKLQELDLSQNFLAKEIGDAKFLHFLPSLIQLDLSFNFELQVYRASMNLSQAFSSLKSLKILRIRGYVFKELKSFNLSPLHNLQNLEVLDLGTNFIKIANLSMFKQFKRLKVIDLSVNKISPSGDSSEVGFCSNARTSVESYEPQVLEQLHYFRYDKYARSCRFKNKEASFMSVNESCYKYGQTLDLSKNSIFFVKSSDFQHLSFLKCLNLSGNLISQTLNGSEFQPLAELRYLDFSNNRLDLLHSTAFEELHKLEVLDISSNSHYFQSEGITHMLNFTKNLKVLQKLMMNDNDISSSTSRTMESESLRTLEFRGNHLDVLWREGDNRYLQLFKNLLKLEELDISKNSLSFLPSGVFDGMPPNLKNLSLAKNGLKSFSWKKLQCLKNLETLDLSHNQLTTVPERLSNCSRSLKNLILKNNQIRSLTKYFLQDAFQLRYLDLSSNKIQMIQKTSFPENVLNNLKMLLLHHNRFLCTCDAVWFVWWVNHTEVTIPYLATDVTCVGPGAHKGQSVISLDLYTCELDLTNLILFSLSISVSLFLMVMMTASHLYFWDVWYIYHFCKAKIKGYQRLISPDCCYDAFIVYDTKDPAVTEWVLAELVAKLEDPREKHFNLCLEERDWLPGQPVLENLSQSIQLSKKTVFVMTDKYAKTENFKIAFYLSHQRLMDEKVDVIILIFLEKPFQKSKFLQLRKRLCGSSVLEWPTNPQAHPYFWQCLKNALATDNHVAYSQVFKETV
Description: TLR7 inhibition reporter assay (HEK-Blue cells, secreted embryonic alkaline phosphatase reporter). The settings on record: HEK-Blue cells overexpressing human TLR7, stimulated with gardiquimod 7.5 μM; read-out: TLR 7 IC50. The procedure, abridged:
as §1

Setting [4] is: HEK-Blue cells overexpressing human TLR9, stimulated with ODN2006 5 nM, read-out: TLR 9 IC50.
Setting [5] is: HEK-Blue human TLR9 reporter cells.

Read-outs that look alike come from different tables or passages of the source.

Turning to `Cc1cc(-c2cc(F)cc(CN3CCC(N4CCC4)CC3)c2)cc2c1nc(-c1ccc(S(C)(=O)=O)cc1)n2C` [Example 406, 6-(3-((4-(azetidin-1-yl)piperidin-1-yl)methyl)-5-fluorophenyl)-1,4-dimethyl-2-(4-(methylsulfonyl)phenyl)-1H-benzo[d]imidazole], the half-inhibitory concentration (IC50) in test [1] (HEK-Blue cells overexpressing human TLR9, stimulated with ODN2006 5 nM, 22 hour incubation, reporter readout) amounted to 130 nM; in test [1] (setting [4]), 133 nM; in test [2] it was 2000 nM; in test [3], 600 nM.

Turning to `CC(C)CN1C2CCC1CC(N1CCC(c3cc(F)c4nc(-c5ccc(S(C)(=O)=O)cc5)n(C5CC5)c4c3)CC1)C2` (single isomer, unassigned) [Example 323, 1-cyclopropyl-4-fluoro-6-(1-(8-isobutyl-8-azabicyclo[3.2.1]octan-3-yl)piperidin-4-yl)-2-(4-(methylsulfonyl)phenyl)-1H-benzo[d]imidazole], the IC50 in test [1] (setting [4]) was 60 nM; in test [1] (setting [5]), 60 nM; in test [2], over 50000 nM; in test [3], 2100 nM.

As for `Cn1c(-c2ccc(S(C)(=O)=O)cc2)nc2ccc(C3CCN(C4CCCN(C5COC5)CC4)CC3)c(F)c21` (centres unmarked) [Example 315, 7-fluoro-1-methyl-2-(4-(methylsulfonyl)phenyl)-6-(1-(1-(oxetan-3-yl)azepan-4-yl)piperidin-4-yl)-1H-benzo[d]imidazole], the IC50 in test [1] (setting [4]) is 147 nM; in test [1] (setting [5]), 150 nM; in test [2], over 50000 nM; in test [3], 6200 nM.

As to `COCCN1CCC(N2CCC(c3cc(F)c4nc(-c5ccc(S(C)(=O)=O)cc5)n(C)c4c3)CC2)CC1` [Example 281, 4-fluoro-6-(1′-(2-methoxyethyl)-[1,4′-bipiperidin]-4-yl)-1-methyl-2-(4-(methylsulfonyl)phenyl)-1H-benzo[d]imidazole], the IC50 in test [1] was 120 nM; in test [1] (setting [4]), 124 nM; in test [2], over 50000 nM; in test [3], 7000 nM.

As to `COc1cc(-c2nc3c(C)cc(C4CCN(C5CC6CCC(C5)N6C5CC5)CC4)cc3[nH]2)cn2ncnc12` (centres unmarked) [Example 360, 6-(6-(1-(8-cyclopropyl-8-azabicyclo[3.2.1]octan-3-yl)piperidin-4-yl)-4-methyl-1H-benzo[d]imidazol-2-yl)-8-methoxy-[1,2,4]triazolo[1,5-a]pyridine], the half-inhibitory concentration (IC50) in test [1] (setting [4]) amounted to 9.7 nM; in test [1] (setting [5]) it was 9.7 nM; in test [2] it was 26300 nM; in test [3] it was 700 nM.

Regarding `Cn1c(-c2ccc(S(C)(=O)=O)cc2)nc2cc(C3CCN(C4CCN(C5CCOCC5)CC4)CC3)cc(F)c21` [Example 207, 7-fluoro-1-methyl-2-(4-(methylsulfonyl)phenyl)-5-(1′-(tetrahydro-2H-pyran-4-yl)-[1,4′-bipiperidin]-4-yl)-1H-benzo[d]imidazole], the IC50 in test [1] was 110 nM; in test [1] (setting [4]), 110 nM; in test [2], over 50000 nM; in test [3] it was 18300 nM.

Consider `CC(C)CN1CCC(N2CCC(c3ccc4c(nc(-c5ccc(S(C)(=O)=O)cc5)n4C)c3F)CC2)CC1` [Example 184, 4-fluoro-5-(1′-isobutyl-[1,4′-bipiperidin]-4-yl)-1-methyl-2-(4-(methylsulfonyl)phenyl)-1H-benzo[d]imidazole], for which the 50% inhibitory concentration (IC50) was 850 nM in test [1], 850 nM in test [1] (setting [4]), over 50000 nM in test [2] and over 50000 nM in test [3].

On to `COCCN1CCC(N2CCC(c3cc4nc(-c5ccc(S(C)(=O)=O)cc5)n(C)c4cc3F)CC2)CC1` [Example 246, 6-fluoro-5-(1′-(2-methoxyethyl)-[1,4′-bipiperidin]-4-yl)-1-methyl-2-(4-(methylsulfonyl)phenyl)-1H-benzo[d]imidazole], for which the IC50 in test [1] was 400 nM; in test [1] (setting [4]), 398 nM; in test [2] it was over 50000 nM; in test [3] it was 26200 nM.

The IC50 is the point on the concentration scale where inhibition reaches its midpoint.
